# Paper PMC5931096, “A Phase I study of the novel immunomodulatory agent PG545 (pixatimod) in subjects with advanced solid tumours” (British Journal of Cancer, 2018)
# “Also recorded” adds a separate entry of the source. Like-named read-outs stand apart in the source and are kept apart here.
# Tests used:
# [1] = system: tumour-associated macrophages (TAM); design: method as in PMID 24970482, PMID 23696215; conditions: preclinical cancer models; cited from earlier work
# [2] = Plasma pharmacokinetics (LC-MS/MS, population PK model and NCA); format: in vivo, human; conditions: for AUC / Cmax / AUC(0-t) / half-life: human, plasma, intravenous
# Description: Plasma samples were obtained for the first (day 1) and fourth (day 22) doses, as follows: (1) pre-dosing (no more than 4 h prior to infusion start); (2) mid-point of infusion; prior to completion of infusion; 30 min post-infusion; then 2, 4, 6, 24, 48, 72, 144 and 168 h post-infusion. Samples were analysed for PG545 concentration using a validated liquid chromatography with tandem mass spectrometry (LC-MS/MS) assay.[13] A population PK model was developed using NONMEM® and individual non-compartmental analysis-type exposure parameter estimation was also performed.
# [3] = system: advanced solid malignancies; assay: Clinical activity by RECIST 1.1; format: in vivo, human
# Description: All patients were assessed for safety, those who received at least one dose of PG545 were evaluated for efficacy. Safety assessment included the incidence of all adverse events (AEs), irrespective of relationship to study drug, according to the National Cancer Institute Common Terminology Criteria for Adverse Events, version 4.0, and the incidence of patients experiencing dose modifications and/or premature discontinuation of study drug. Dose-limiting toxicities (DLTs) used to determine the MTD were defined as occurring during Cycle 1 of treatment only and related to PG545 according to investigator assessment. If no DLT occurred in the first three subjects, the next three-subject cohort was enrolled at the next highest available dose level. If a single DLT occurred, an additional three subjects was enrolled at the same dose level. Dose escalation continued until two subjects of the cohort experienced a DLT; this was defined as the toxic dose level. The dose-escalation phase was completed and MTD determined by reducing the dose to the next lowest dose compared to the toxic dose and expanding this cohort to at least 6 subjects.
# Subjects with measurable disease were assessed by computed tomography at baseline and every 8 weeks according to Response Evaluation Criteria in Solid Tumours (RECIST), version 1.1 criteria.
# [4] = 100 mg, dose number 1, NCA mean
# [5] = 100 mg, dose number 4, NCA mean
# [6] = 150 mg, dose number 1, NCA mean
# [7] = 150 mg, dose number 4, NCA mean
smiles,measurement,setting,value
CC(C)CCC[C@@H](C)[C@H]1CC[C@H]2[C@@H]3CC[C@H]4C[C@@H](O[C@@H]5O[C@H](COS(=O)(=O)O)[C@@H](O[C@H]6O[C@H](COS(=O)(=O)O)[C@@H](O[C@H]7O[C@H](COS(=O)(=O)O)[C@@H](O[C@H]8O[C@H](COS(=O)(=O)O)[C@@H](OS(=O)(=O)O)[C@H](OS(=O)(=O)O)[C@H]8OS(=O)(=O)O)[C@H](OS(=O)(=O)O)[C@H]7OS(=O)(=O)O)[C@H](OS(=O)(=O)O)[C@H]6OS(=O)(=O)O)[C@H](OS(=O)(=O)O)[C@H]5OS(=O)(=O)O)CC[C@]4(C)[C@H]3CC[C@]12C [PG545],Inhibition of tumour-associated macrophages (TAM),[1],potently inhibit
same,Exposure (AUC0–168 and Cmax) relative to dose,[2]; 150 mg dose level,sub-proportional
same,Dose proportionality of exposure,[2]; 25-150 mg,proportional up to 100 mg; also recorded: general dose-proportionate exposure up to 100 mg
same,AUC,"[2]; 25 mg, dose number 1, NCA mean",432 µg·h/mL
same,Cmax,"[2]; 25 mg, dose number 1, NCA mean",9600 ng/mL
same,AUC(0-t),"[2]; 25 mg, dose number 1, NCA mean, read-out: AUC0-96",339 µg·h/mL
same,AUC(0-t),"[2]; 25 mg, dose number 1, NCA mean, read-out: AUC0-last",465 µg·h/mL
same,half-life,"[2]; 25 mg, dose number 1, NCA mean, read-out: t1/2 (converted)",149 h
same,AUC,"[2]; 25 mg, dose number 4, NCA mean",841 µg·h/mL
same,Cmax,"[2]; 25 mg, dose number 4, NCA mean",12400 ng/mL
same,AUC(0-t),"[2]; 25 mg, dose number 4, NCA mean, read-out: AUC0-96",589 µg·h/mL
same,AUC(0-t),"[2]; 25 mg, dose number 4, NCA mean, read-out: AUC0-last",611 µg·h/mL
same,half-life,"[2]; 25 mg, dose number 4, NCA mean, read-out: t1/2 (converted)",123 h
same,AUC,"[2]; 50 mg, dose number 1, NCA mean",695 µg·h/mL
same,Cmax,"[2]; 50 mg, dose number 1, NCA mean",15600 ng/mL
same,AUC(0-t),"[2]; 50 mg, dose number 1, NCA mean, read-out: AUC0-96",539 µg·h/mL
same,AUC(0-t),"[2]; 50 mg, dose number 1, NCA mean, read-out: AUC0-last",710 µg·h/mL
same,half-life,"[2]; 50 mg, dose number 1, NCA mean, read-out: t1/2 (converted)",183 h
same,AUC,"[2]; 50 mg, dose number 4, NCA mean",1640 µg·h/mL
same,Cmax,"[2]; 50 mg, dose number 4, NCA mean",21700 ng/mL
same,AUC(0-t),"[2]; 50 mg, dose number 4, NCA mean, read-out: AUC0-96",1120 µg·h/mL
same,AUC(0-t),"[2]; 50 mg, dose number 4, NCA mean, read-out: AUC0-last",1690 µg·h/mL
same,half-life,"[2]; 50 mg, dose number 4, NCA mean, read-out: t1/2 (converted)",228 h
same,AUC,[2]; [4],1210 µg·h/mL
same,Cmax,[2]; [4],29500 ng/mL
same,AUC(0-t),"[2]; 100 mg, dose number 1, NCA mean, read-out: AUC0-96",974 µg·h/mL
same,AUC(0-t),"[2]; 100 mg, dose number 1, NCA mean, read-out: AUC0-last",1210 µg·h/mL
same,half-life,"[2]; 100 mg, dose number 1, NCA mean, read-out: t1/2 (converted)",133 h
same,AUC,[2]; [5],2250 µg·h/mL
same,Cmax,[2]; [5],35600 ng/mL
same,AUC(0-t),"[2]; 100 mg, dose number 4, NCA mean, read-out: AUC0-96",1610 µg·h/mL
same,AUC(0-t),"[2]; 100 mg, dose number 4, NCA mean, read-out: AUC0-last",2380 µg·h/mL
same,half-life,"[2]; 100 mg, dose number 4, NCA mean, read-out: t1/2 (converted)",133 h
same,AUC,[2]; [6],1500 µg·h/mL
same,Cmax,[2]; [6],37100 ng/mL
same,AUC(0-t),"[2]; 150 mg, dose number 1, NCA mean, read-out: AUC0-96",1190 µg·h/mL
same,AUC(0-t),"[2]; 150 mg, dose number 1, NCA mean, read-out: AUC0-last",1440 µg·h/mL
same,half-life,"[2]; 150 mg, dose number 1, NCA mean, read-out: t1/2 (converted)",117 h
same,AUC,[2]; [7],3190 µg·h/mL
same,Cmax,[2]; [7],48600 ng/mL
same,AUC(0-t),"[2]; 150 mg, dose number 4, NCA mean, read-out: AUC0-96",2230 µg·h/mL
same,AUC(0-t),"[2]; 150 mg, dose number 4, NCA mean, read-out: AUC0-last",2780 µg·h/mL
same,half-life,"[2]; 150 mg, dose number 4, NCA mean, read-out: t1/2 (converted)",128 h
same,half-life,"[2]; across all subjects, population PK model, read-out: Mean t1/2 (converted)",141 h
same,Between subject variability of CL,[2]; population PK model,75.6 % CV
same,Between subject variability of Vp,[2]; population PK model,61.2 % CV
same,Apparent central volume (Vc),"[2]; population PK model, IV",2.98 L
same,Apparent clearance (CL),"[2]; population PK model, IV",0.0165 L/h
same,Apparent peripheral volume (Vp),"[2]; population PK model, IV",11.9 L
same,Estimated median duration of SD,[3]; 95% confidence interval from 39 days to 62 days,57 days
same,Disease control rate,"[3]; evaluable subjects (six of sixteen), at 8 weeks",38%
same,Best response,"[3]; human, in vivo",stable disease up to 24 weeks
same,Objective responses,[3]; monotherapy,No objective responses were reported
same,Patients with stable disease (SD) at 8 weeks,"[3]; of sixteen patients assessed, RECIST 1.1",six
